Reference: patent US12534452B2, “N-(1H-imidazol-2-yl)benzamide compound and pharmaceutical composition comprising the same as active ingredient” (KAINOS MEDICINE, INC., priority 2019, dated 2026)

target: IRAK4 (Homo sapiens (Human), UniProt Q9NWZ3); experiment: In vitro IRAK4 phosphorylation activity assay; type: biochemical; conditions: [γ-33P]-ATP, myelin basic protein substrate, 40 minutes at room temperature; categories
How it was run: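 Radiometric filter-binding assay, no compound–kinase preincubation; 8 mM MOPS pH 7.0, 0.2 mM EDTA, 10 mM Mg acetate, 0.33 mg/mL myelin basic protein substrate, [γ-33P]-ATP. Reaction 40 min at room temperature, stopped with phosphoric acid, scintillation counting; IC50 reported in categories.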

IRAK4, sequence (Q9NWZ3 whole entry): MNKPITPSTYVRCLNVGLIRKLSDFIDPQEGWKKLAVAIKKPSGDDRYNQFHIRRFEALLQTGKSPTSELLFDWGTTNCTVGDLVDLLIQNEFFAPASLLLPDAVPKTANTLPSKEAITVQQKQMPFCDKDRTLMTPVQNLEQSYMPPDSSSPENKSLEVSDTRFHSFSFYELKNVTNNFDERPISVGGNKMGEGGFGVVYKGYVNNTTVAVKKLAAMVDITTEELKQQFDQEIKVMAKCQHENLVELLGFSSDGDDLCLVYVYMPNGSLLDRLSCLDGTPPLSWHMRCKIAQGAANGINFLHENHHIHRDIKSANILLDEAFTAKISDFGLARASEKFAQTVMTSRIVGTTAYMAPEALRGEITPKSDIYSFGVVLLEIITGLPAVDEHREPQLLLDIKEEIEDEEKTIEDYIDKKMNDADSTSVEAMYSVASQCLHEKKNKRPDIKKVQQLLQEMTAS

Row | SMILES | IC50
1 | Cn1cc(-c2cccc(C(=O)Nc3nc(CCCC(=O)N4CCC[C@H](N)C4)cn3-c3ccccc3)c2)cn1 [Example 211, (S)—N-(4-(4-(3-aminopiperidin-1-yl)-4-oxobutyl)-1-phenyl-1H-imidazol-2-yl)-3-(1-methyl-1H-pyrazol-4-yl)benzamide] | < 50 nM
2 | CN1CCN(C(=O)CCCc2cn(-c3ccccc3)c(NC(=O)c3cccc(-c4ccc5scnc5c4)c3)n2)CC1 [Example 284, 3-(benzo[d]thiazol-5-yl)-N-(4-(4-(4-methylpiperazin-1-yl)-4-oxobutyl)-1-phenyl-1H-imidazol-2-yl)benzamide] | > 100 nM
3 | O=C(CCc1cn(-c2ccccc2)c(NC(=O)c2cccc(-c3cn[nH]c3)c2)n1)NN1CCCC1 [Example 27, N-(4-(3-oxo-3-(pyrrolidin-1-ylamino)propyl)-1-phenyl-1H-imidazol-2-yl)-3-(1H-pyrazol-4-yl)benzamide] | > 100 nM
4 | COC[C@H]1CCCN1NC(=O)CCc1cn(-c2ccccc2)c(NC(=O)c2cccc(-c3cn[nH]c3)c2)n1 [Example 17, (R)—N-(4-(3-((2-(methoxymethyl)pyrrolidin-1-yl)amino)-3-oxopropyl)-1-phenyl-1H-imidazol-2-yl)-3-(1H-pyrazol-4-yl)benzamide] | > 100 nM
5 | CN(C)c1ccc(NC(=O)CCCc2cn(-c3ccccc3)c(NC(=O)c3cccc(-c4cnn(C)c4)c3)n2)cc1 [Example 155, N-(4-(4-((4-(dimethylamino)phenyl)amino)-4-oxobutyl)-1-phenyl-1H-imidazol-2-yl)-3-(1-methyl-1H-pyrazol-4-yl)benzamide] | < 50 nM
6 | CN1CCN(C(=O)CCCc2cn(-c3ccc(F)cc3)c(NC(=O)c3cccc(-c4cnn(C)c4)c3)n2)CC1 [Example 299, N-(1-(4-fluorophenyl)-4-(4-(4-methylpiperazin-1-yl)-4-oxobutyl)-1H-imidazol-2-yl)-3-(1-methyl-1H-pyrazol-4-yl)benzamide] | < 50 nM
7 | O=C(CCCc1cn(-c2ccccc2)c(NC(=O)c2cccc(-c3cccc4cn[nH]c34)c2)n1)NC1CC1 [Example 248, N-(4-(4-(cyclopropylamino)-4-oxobutyl)-1-phenyl-1H-imidazol-2-yl)-3-(1H-indazol-7-yl)benzamide] | > 100 nM
8 | COC(=O)CCc1cn(-c2ccccc2)c(NC(=O)c2cccc(-c3cn[nH]c3)c2)n1 [Example 18, methyl 3-(2-(3-(1H-pyrazol-4-yl)benzamido)-1-phenyl-1H-imidazol-4-yl)propanoate] | < 50 nM
9 | C[Si](C)(C)CCOCn1cc(-c2cccc(C(=O)Nc3nc(CCCC(=O)NC4CC4)cn3-c3ccccc3)c2)cn1 [Example 67, N-(4-(4-(cyclopropylamino)-4-oxobutyl)-1-phenyl-1H-imidazol-2-yl)-3-(1-((2-(trimethylsilyl)ethoxy)methyl)-1H-pyrazol-4-yl)benzamide] | > 100 nM
10 | O=C(Nc1nc(CCCCCCN2CCOCC2)cn1-c1ccccc1)c1cccc(-c2ccc3[nH]ncc3c2)c1 [Example 254, 3-(1H-indazol-5-yl)-N-(4-(6-morpholinohexyl)-1-phenyl-1H-imidazol-2-yl)benzamide] | < 50 nM
11 | Nc1n[nH]cc1-c1cccc(C(=O)Nc2nc(CCC(=O)Nc3ccccc3)cn2-c2ccccc2)c1 [Example 2, 3-(3-amino-1H-pyrazol-4-yl)-N-(4-(3-oxo-3-(phenylamino)propyl)-1-phenyl-1H-imidazol-2-yl)benzamide] | > 100 nM
12 | Cn1cc(-c2cccc(C(=O)Nc3nc(CCCC(=O)N4CCN(C5CCCCC5)CC4)cn3-c3ccccc3)c2)cn1 [Example 182, N-(4-(4-(4-cyclohexylpiperazin-1-yl)-4-oxobutyl)-1-phenyl-1H-imidazol-2-yl)-3-(1-methyl-1H-pyrazol-4-yl)benzamide] | < 50 nM
13 | CNC(=O)Cc1cn(-c2ccccc2)c(NC(=O)c2ccc3[nH]ncc3c2)n1 [Example 49, N-(4-(2-(methylamino)-2-oxoethyl)-1-phenyl-1H-imidazol-2-yl)-1H-indazole-5-carboxamide] | > 100 nM
14 | Cn1cc(-c2cccc(C(=O)Nc3nc(CCCC(=O)N4CCNCC4)cn3-c3ccccc3)c2)cn1 [Example 202, 3-(1-methyl-1H-pyrazol-4-yl)-N-(4-(4-oxo-4-(piperazin-1-yl)butyl)-1-phenyl-1H-imidazol-2-yl)benzamide] | < 50 nM
15 | O=C(Nc1nc(CCCCN2CCCCC2)cn1-c1ccccc1)c1cccc(-c2ccc3[nH]ncc3c2)c1 [Example 256, 3-(1H-indazol-5-yl)-N-(1-phenyl-4-(4-(piperidin-1-yl)butyl)-1H-imidazol-2-yl)benzamide] | < 50 nM
16 | C[C@@H]1CCCN1C(=O)CCc1cn(-c2ccccc2)c(NC(=O)c2cccc(-c3cn[nH]c3)c2)n1 [Example 23, (R)—N-(4-(3-(2-methylpyrrolidin-1-yl)-3-oxopropyl)-1-phenyl-1H-imidazol-2-yl)-3-(1H-pyrazol-4-yl)benzamide] | < 50 nM
17 | COC[C@H]1CCCN1C(=O)Cc1cn(-c2ccccc2)c(NC(=O)c2cccc(-c3cn[nH]c3)c2)n1 [Example 47, (R)—N-(4-(2-(2-(methoxymethyl)pyrrolidin-1-yl)-2-oxoethyl)-1-phenyl-1H-imidazol-2-yl)-3-(1H-pyrazol-4-yl)benzamide] | > 100 nM
18 | CNC(=O)CCCc1cn(-c2ccccc2)c(NC(=O)c2cccc(-c3ccc4[nH]ncc4c3)c2)n1 [Example 244, 3-(1H-indazol-5-yl)-N-(4-(4-(methylamino)-4-oxobutyl)-1-phenyl-1H-imidazol-2-yl)benzamide] | < 50 nM
19 | Cn1cc(-c2cccc(C(=O)Nc3nc(CCCCC(=O)N4CCNCC4)cn3-c3ccccc3)c2)cn1 [Example 204, 3-(1-methyl-1H-pyrazol-4-yl)-N-(4-(5-oxo-5-(piperazin-1-yl)pentyl)-1-phenyl-1H-imidazol-2-yl)benzamide] | < 50 nM
20 | Cn1cc(-c2cccc(C(=O)Nc3nc(CCCC(=O)NN4CCCC4)cn3-c3ccccc3)c2)cn1 [Example 151, 3-(1-methyl-1H-pyrazol-4-yl)-N-(4-(4-oxo-4-(pyrrolidin-1-ylamino)butyl)-1-phenyl-1H-imidazol-2-yl)benzamide] | < 50 nM
21 | Cn1cc(-c2cccc(C(=O)Nc3nc(CCCC(=O)NCCC(C)(C)O)cn3-c3ccccc3)c2)cn1 [Example 171, N-(4-(4-((3-hydroxy-3-methylbutyl)amino)-4-oxobutyl)-1-phenyl-1H-imidazol-2-yl)-3-(1-methyl-1H-pyrazol-4-yl)benzamide] | < 50 nM
22 | O=C(Nc1nc(CCCCCN2CCSCC2)cn1-c1ccccc1)c1cccc(-c2cn[nH]c2)c1 [Example 120, N-(1-phenyl-4-(5-thiomorpholinopentyl)-1H-imidazol-2-yl)-3-(1H-pyrazol-4-yl)benzamide] | < 50 nM
23 | CN1CCCN(C(=O)CCCc2cn(-c3ccccc3)c(NC(=O)c3cccc(-c4cnn(C)c4)c3)n2)CC1 [Example 183, N-(4-(4-(4-methyl-1,4-diazepan-1-yl)-4-oxobutyl)-1-phenyl-1H-imidazol-2-yl)-3-(1-methyl-1H-pyrazol-4-yl)benzamide] | < 50 nM
24 | N[C@@H]1CCCN(C(=O)CCc2cn(-c3ccccc3)c(NC(=O)c3cccc(-c4cn[nH]c4)c3)n2)C1 [Example 40, (R)—N-(4-(3-(3-aminopiperidin-1-yl)-3-oxopropyl)-1-phenyl-1H-imidazol-2-yl)-3-(1H-pyrazol-4-yl)benzamide] | < 50 nM
